Structures can show the parent of a compound that is named as a salt.

The text below walks through data of US20220267331A1, “DOPAMINE-B-HYDROXYLASE INHIBITORS” (BIAL - PORTELA & CA, S.A., priority 2019, published 2022).

The target in the assay is T1, DβH (Homo sapiens, UniProt P09172).
T1 construct: 125 μL of plasma (or saline for blank reaction or standard curve); tissue Instituto Português do Sangue Transplantação, Centro Sangue Transplantação, Porto, Portugal; host or cells: human plasma from healthy donors
T1 sequence (P09172 40-617 limits assumed): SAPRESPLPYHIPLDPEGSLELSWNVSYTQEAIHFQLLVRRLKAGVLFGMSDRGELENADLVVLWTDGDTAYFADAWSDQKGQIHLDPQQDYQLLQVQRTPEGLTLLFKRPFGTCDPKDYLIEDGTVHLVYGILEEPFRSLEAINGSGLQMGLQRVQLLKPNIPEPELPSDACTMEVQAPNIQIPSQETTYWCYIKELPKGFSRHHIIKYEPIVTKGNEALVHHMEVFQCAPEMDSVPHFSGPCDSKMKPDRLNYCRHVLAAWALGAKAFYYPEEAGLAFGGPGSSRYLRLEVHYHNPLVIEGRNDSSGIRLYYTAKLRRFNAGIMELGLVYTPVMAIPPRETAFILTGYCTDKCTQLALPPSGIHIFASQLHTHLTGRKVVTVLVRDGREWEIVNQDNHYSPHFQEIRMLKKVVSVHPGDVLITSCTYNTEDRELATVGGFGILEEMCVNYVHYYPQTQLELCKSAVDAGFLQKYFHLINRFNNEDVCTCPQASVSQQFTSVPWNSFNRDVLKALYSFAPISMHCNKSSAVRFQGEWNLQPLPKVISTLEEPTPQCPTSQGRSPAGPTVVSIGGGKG
The assay can be described thus: Dopamine-β-hydroxylase inhibition assay in human plasma. Particulars: for DβH (0.1 μM) / remaining activity at 0.1 µM: DβH activity in human plasma at 0.1 μM inhibitor; for IC50: human plasma, curve fitting of 6 concentrations (100 nM to 0.3 nM). Format: biochemical. As to the method: The ability of a compound to inhibit DβH activity may be assessed in human plasma using the following assay.
Dopamine beta hydroxylase activity in human plasma was measured by the method of Nagatsu and Udenfriend (Nagatsu, T. and Udenfriend, S. “Photometric assay of dopamine-p-hydroxylase activity in human blood.” Clin. Chem. 18(9) 980-983, 1972) with minor modifications. Catalase, N-ethylmaleimide, tyramine, disodium fumarate, pargyline, sodium acetate, ascorbic acid, copper sulfate and octopamine were obtained from Sigma Chemical Co., St. Louis, Mo. 63178. Human plasma samples were obtained from healthy donors (Instituto Português do Sangue Transplantação, Centro Sangue Transplantação, Porto, Portugal). From date of collection, plasma was stored at −80° C. until use. Test compounds were initially prepared in dimethyl sulfoxide at a concentration of 10 mM and diluted in dimethyl sulfoxide to the required concentrations. Test compounds were further diluted in ultrapure water to a concentration 20-fold to that of the final concentration to be tested. Final concentrations of test compounds were 10 and 100 nM. The various reagents used to make up the incubation buffer were premixed and consisted of the following components: sodium acetate buffer (1 M, pH 5.0, 18 mL), sodium fumarate (0.2 M, 4.5 mL), ascorbic acid (0.2 M, 4.5 ml, freshly prepared), pargyline (20 mM, freshly prepared, 4.5 mL), N-ethylmaleimide (0.2 M, 4.5 mL), catalase (10 000 U/mL, 9 mL), copper sulfate (20 μM, 4.5 mL) and 4.5 ultrapure water. The standard incubation mixture (total volume, 950 μL) contained: 50 μL of compound or vehicle (dimethyl sulfoxide 2%); 700 μL of incubation buffer; 125 μL of plasma (or saline for blank reaction or standard curve); 75 μL of saline. The reaction mixture was placed in water bath, shaking at 37° C. and pre-incubated for 10 minutes. Tyramine (0.5 M) was added and incubation proceeded for 45 minutes. The reaction contents were exposed to air. A sample of enzyme preparation (with 125 μL of plasma) that had been added perchloric acid 2 M at the end of the pre-incubation period was used as blank. A blank for each of the tested compounds was used. For octopamine standard curve, perchloric acid 2 M was replaced by increasing concentrations of octopamine prepared in perchloric acid 2 M (0.5, 1, 2.5, 5, 7.5, 10, 15, 20 μg/mL, final concentration). The incubation was stopped by adding 200 μL of 2 M molar perchloric acid, and the mixture was centrifuged at 9000 g for 5 min. The supernatant fluid (800 μL) was transferred to a column (SPE cartridge ISOLUTE SCX-3, 100 mg) and centrifuged at 150 g for 2 min. The column was washed two more times with 0.5 ml of ultrapure water by centrifuging at 150 g for 2 min. The adsorbed octopamine was eluted twice with 0.3 mL of 4 M ammonium hydroxide by centrifuging at 150 g for 2 min. Octopamine in the eluate was then converted to p-hydroxybenzaldehyde by adding 200 μL of sodium periodate (2%) and incubating for 6 min. Excess periodate was than reduced by adding 200 μL of sodium metabisulfite (10%). Absorbance was measured at […] in a 96-well plate by use of a SpectraMAX plus 384 (Molecular Devices) with software SOFTmax® PRO Software 5.3 spectrophotometer. Absorbance was linear with octopamine concentration from 0.5 to 20 μg/mL. Dopamine beta hydroxylase activity is determined as nmol of octopamine formed/mL of plasma/hour and effect of compounds is presented as % control. Results are reported in the table below as activity in % of control at the inhibitor concentration tested.
IC50 values of selected compounds were calculated based on curve fitting of results of 6 different compound concentrations (100 nM to 0.3 nM). IC50 data are reported in nM concentration.

Setting [1] is: DβH activity in human plasma at 0.01 μM inhibitor.

On to `Cl.Fc1ccc(F)c([C@H]2Cc3c(CCCN4CC[C@@H](F)C4)[nH]c(=S)n3C2)c1F` [Example 7, (R)-1-(3-((R)-3-fluoropyrrolidin-1-yl)propyl)-6-(2,3,6-trifluorophenyl)-2,5,6,7-tetrahydro-3H-pyrrolo[1,2-c]imidazole-3-thione hydrochloride], for which the “DβH (0.1 μM)” value is recorded as 3.0 % of Control and half-maximal inhibition (IC50) was put at 8.3 nM. The molecule also displayed a remaining activity at 0.01 µM under setting [1] of 42.5%.
Regarding `Fc1ccc(Cl)c(F)c1[C@]12C[C@H]1c1c(CCCN[C@H]3CCCOC3)[nH]c(=S)n1C2` [Example 22, (5aS,6aR)-5a-(3-chloro-2,6-difluorophenyl)-1-(3-(((S)-tetrahydro-2H-pyran-3-yl)amino)propyl)-5,5a,6,6a-tetrahydrocyclopropa[3,4]pyrrolo[1,2-c]imidazole-3(2H)-thione], the remaining activity at 0.1 µM is 3.5% and the IC50 came out at 4 nM. Further, the remaining activity at 0.01 µM under setting [1] amounted to 23.5%.
On to `NCCCc1[nH]c(=S)n2c1C[C@H](c1c(F)ccc(F)c1F)C2` [Example 2, (R)-1-(3-aminopropyl)-6-(2,3,6-trifluorophenyl)-2,5,6,7-tetrahydro-3H-pyrrolo[1,2-c]imidazole-3-thione], for which the remaining activity at 0.1 µM stood at 66.6%. This molecule also came in with a remaining activity at 0.01 µM under setting [1] of 98.4%.
Molecule `Fc1ccc(Cl)cc1[C@]12C[C@H]1c1c(CCCNC3CCOCC3)[nH]c(=S)n1C2` [Example 17, (5aS,6aR)-5a-(5-chloro-2-fluorophenyl)-1-(3-((tetrahydro-2H-pyran-4-yl)amino)propyl)-5,5a,6,6a-tetrahydrocyclopropa[3,4]pyrrolo[1,2-c]imidazole-3(2H)-thione] yielded a remaining activity at 0.1 µM of 3.9% and a 50% inhibitory concentration (IC50) of 9.9 nM. The remaining activity at 0.01 µM under setting [1] is 41.8%.
As for `Cl.Fc1ccc(F)c([C@H]2Cc3c(CCCN4CCOCC4)[nH]c(=S)n3C2)c1F` [Example 1, (R)-1-(3-morpholinopropyl)-6-(2,3,6-trifluorophenyl)-2,5,6,7-tetrahydro-3H-pyrrolo[1,2-c]imidazole-3-thione hydrochloride], the “DβH (0.1 μM)” value is listed as 12.9 % of Control and the 50% inhibitory concentration (IC50) came out at 12.7 nM. Also, the “DβH (0.01 μM)” value under setting [1] is 64.6 % of Control.
Take `Fc1ccc(F)c([C@H]2Cc3c(CCCN[C@H]4CCCOC4)[nH]c(=S)n3C2)c1F` [Example 9, (R)-1-(3-(((S)-tetrahydro-2H-pyran-3-yl)amino)propyl)-6-(2,3,6-trifluorophenyl)-2,5,6,7-tetrahydro-3H-pyrrolo[1,2-c]imidazole-3-thione]: the remaining activity at 0.1 µM is 12.2% and half-maximal inhibition (IC50) was put at 19.1 nM. The molecule further displayed a remaining activity at 0.01 µM under setting [1] of 48.1%.
For the molecule `CN(CCCc1[nH]c(=S)n2c1C[C@H](c1c(F)ccc(F)c1F)C2)C1CCOC1` (stereo partly drawn) [Example 13, (6R)-1-(3-(methyl(tetrahydrofuran-3-yl)amino)propyl)-6-(2,3,6-trifluorophenyl)-2,5,6,7-tetrahydro-3H-pyrrolo[1,2-c]imidazole-3-thione hydrochloride], the remaining activity at 0.1 µM was 29.3% and half-maximal inhibition (IC50) was put at 22.2 nM. This molecule also showed a remaining activity at 0.01 µM under setting [1] of 69.9%.

In general, remaining activity refers to the activity still measured, relative to the control. Lower therefore signals little activity left. By IC50 is commonly meant the concentration needed to halve the response being measured.
